Source: US20240158418A1 (C4 Therapeutics, Inc., priority 2021, published 2024)
“Also recorded” adds a separate entry of the source.

What was measured:
EGFR L858R = EGFR L858R (Homo sapiens, UniProt P00533, L858R); test: Differential scanning fluorimetry (DSF); format: binding; conditions: EGFR (L858R) 10 μM, compound 100 μM, vs apo protein +DMSO TM = 45.4° C.
Procedure: The protein was incubated at 10 μM in buffer (100 mM HEPES pH 7.5 and 150 mM NaCl) with DMSO to determine the stability of the protein alone. In addition, the protein (10 μM) was incubated with each compound (100 μM) individually, or in combination, for 30 min on ice. Protein stability was measured in the presence of 4×SYPRO™ Orange dye (Thermo Fisher) using a ViiA7 Real-Time PCR System (Thermo Fisher) adapted for thermal melts. Reactions of 20 μL were run in quadruplicate using Microamp Optical 384-well reaction plates (Applied Biosystems). Temperature was increased by 0.5° C. intervals from 25° C. to 99° C. and fluorescence intensity was measured. In-house curve fitting analysis software was used to calculate the thermal melting point (TM) of the protein in each reaction.

[1] = system: intracranial NCI-H1975-luciferase expressing NSCLC tumors; test: NCI-H1975-luc intracranial tumor model (intracranial injection into forebrain); format: in vivo, female BALB/c nude mice; conditions: 100 mg/kg/day PO BID
Procedure: Compound 1 efficacy in a NCI-H1975-luciferase expressing intracranial tumor model established by injecting tumor cells intracranially into the mouse forebrain was evaluated at […]: 100 mg/kg/day. Compound 1 was administered BID (twice a day) orally (PO). Eight mice were used per group.
2×10^5 luciferase-expressing NCI-H1975-luc tumor cells suspended in 2 μL RPMI-1640 media were injected into the right forebrain of female BALB/c nude mice. Tumor growth was monitored using imaging analysis. Mice were injected intraperitoneally with 15 mg/mL of D-luciferin and anesthetized with 1-2% isoflurane inhalation. 10 minutes post luciferin injection, mice were imaged using IVIS Lumina III (Perkin Elmer) and total bioluminescence signal (BLI, photons/s) was measured in a region of interest (ROI). BLI from ROI were quantified and used as an indicator of tumor burden. 7 days post tumor cell inoculation mice were randomized into groups of 8 with a mean BLI of 27×10^6 photons/s. All agents were administered to mice bearing NCI-H1975-luc brain tumors on day 8. […] Body weight and MTV were measured on a 2× weekly schedule. Statistical analysis was calculated using the Mann-Whitney U test. Data are expressed as bioluminescent signal (photons/s).

[2] = system: NCI-H1975 L858R-T790M NSCLC xenograft tumors; test: NCI-H1975 NSCLC xenograft efficacy; format: in vivo, female BALB/c nude mice
Procedure: For the NCI-H1975 cells, the xenograft study was conducted in female BALB/c nude mice bearing NCI-H1975 NSCLC tumors. Female nude mice were inoculated subcutaneously in the right flank with 5×10^6 tumors cells in 0.1 mL of PBS. Tumor volume was measured twice weekly in two dimensions using calipers, and volume (mm^3) was calculated using the formula: V=0.5 a×b^2 where a and b are the long and short diameters of the tumor in mm, respectively.
Body weight and MTV were measured on a 2× weekly schedule. Statistical analysis was performed using a one-way ANOVA. Data are expressed as MTV±SEM.

EGFR-L861Q = target: T1, EGFR-L861Q (Homo sapiens, UniProt P00533, L861Q); test: KINOMEscan scanMAX, EGFR-L861Q; format: binding; conditions: 100 nM
T1 construct: purchased Eurofins DiscoverX KINOMEscan scanMAX; host or cells: E. coli BL21-derived (T7 phage) or HEK-293
Procedure: Kinome-wide binding selectivity of CFT8919 was assessed via the KINOMEscan scanMAX assay at Eurofins DiscoverX (Freemont, CA, USA). Compound was tested at 100 nM against a diverse panel of 468 kinases. The size of circles was mapped onto the kinase phylogenetic tree utilizing DiscoverX TREEspot using <50% of % control as a cutoff.
For most assays, kinase-tagged T7 phage strains were grown in parallel in 24-well blocks in an E. coli host derived from the BL21 strain. E. coli were grown to log-phase and infected with T7 phage from a frozen stock (multiplicity of infection=0.4) and incubated with shaking at 32° C. until lysis (90-150 minutes). The lysates were centrifuged (6,000×g) and filtered (0.2 μm) to remove cell debris. The remaining kinases were produced in HEK-293 cells and subsequently tagged with DNA for qPCR detection. Streptavidin-coated magnetic beads were treated with biotinylated small molecule ligands for 30 minutes at room temperature to generate affinity resins for kinase assays. The liganded beads were blocked with excess biotin and washed with blocking buffer (SeaBlock (Pierce), 1% BSA, 0.05% Tween 20, 1 mM DTT) to remove unbound ligand and to reduce non-specific phage binding. […] Test compounds were prepared as 40× stocks in 100% DMSO and directly diluted into the assay. […] The kinase concentration in the eluates was measured by qPCR.

O=C1CC[C@H](Nc2ccc(N3CCC(O)(CC(=O)N4CC5(C4)CN(c4ccc(-c6cc(F)c7c(c6)C(=O)N(C(C(=O)Nc6nccs6)c6ncn8c6CCC8)C7)cc4)C5)CC3)c(F)c2)C(=O)N1 (stereo partly drawn) [Compound 1, 2-(6,7-dihydro-5H-pyrrolo[1,2-c]imidazol-1-yl)-2-[6-[4-[2-[2-[1-[4-[[(3S)-2,6-dioxo-3-piperidyl]amino]-2-fluoro-phenyl]-4-hydroxy-4-piperidyl]acetyl]-2,6-diazaspiro[3.3]heptan-6-yl]phenyl]-4-fluoro-1-oxo-isoindolin-2-yl]-N-thiazol-2-yl-acetamide]
ΔTm at 100 µM (EGFR L858R): 5.8 °C | Statistical Significance Compared to Vehicle ([1]; NCI-H1975-luc cells intracranial): 0.001 | efficacy on NCI-H1975-luc BLI (tumor burden) ([1]; intracranial forebrain model, 100 mg/kg/day): reduced tumor volume; also recorded: tumor regression | efficacy on NCI-H1975 tumor volume ([2]; 20, 50 and 100 mg/kg/day PO BID, 14 days): reduced tumor volume | tumor regression ([2]; NCI-H1975 mouse xenograft model, oral): up to 90% | percent binding remaining (EGFR-L861Q): < 50%
